ChEMBL document CHEMBL1201862, “PubChem BioAssay data set” (2004)
Calls of active or inactive are those of the source.

Assays:
Coagulation factor XII = target: T1, Coagulation factor XII (Homo sapiens, UniProt P00748); format: functional;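 also: activated factor XIIa alpha cleaving a fluorogenic AMC peptide substrate; inhibitor potency from loss of enzyme activity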
T1 sequence (P00748 whole entry): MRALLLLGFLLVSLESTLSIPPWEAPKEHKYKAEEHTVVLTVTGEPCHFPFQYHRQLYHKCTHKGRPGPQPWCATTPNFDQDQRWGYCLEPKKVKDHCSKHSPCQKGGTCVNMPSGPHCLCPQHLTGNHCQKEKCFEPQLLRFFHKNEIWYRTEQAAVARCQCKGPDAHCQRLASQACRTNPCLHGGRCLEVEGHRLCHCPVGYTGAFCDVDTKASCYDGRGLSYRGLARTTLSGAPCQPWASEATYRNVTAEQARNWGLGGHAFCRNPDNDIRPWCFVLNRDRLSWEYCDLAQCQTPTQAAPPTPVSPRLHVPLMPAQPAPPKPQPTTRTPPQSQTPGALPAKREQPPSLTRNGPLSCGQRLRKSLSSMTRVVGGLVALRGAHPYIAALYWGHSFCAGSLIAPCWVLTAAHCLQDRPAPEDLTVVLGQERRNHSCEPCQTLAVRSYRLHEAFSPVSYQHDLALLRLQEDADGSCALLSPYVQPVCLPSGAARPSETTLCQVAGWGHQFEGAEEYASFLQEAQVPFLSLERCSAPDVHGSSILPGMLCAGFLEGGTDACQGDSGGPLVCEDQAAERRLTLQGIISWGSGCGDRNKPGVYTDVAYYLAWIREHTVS

[1] = blockade of melanocortin 4 receptor signaling – cell-based, plate reader, cherry pick, counter-screen for LGR2 antagonist project, dose response (AID 743444); format: functional;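 also: transfected HEK 293 cells stimulated with alpha-MSH peptide; potency of inhibitors of the alpha-MSH evoked signal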
[2] = blockers of bursicon-stimulated LGR2 cAMP reporter – cell-based, HEK293, CRE-luciferase reporter, cherry pick, set 2, dose response (AID 743343); format: functional;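 also: transfected cells were stimulated with diluted bursicon conditioned medium after compound addition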
[3] = target: T2, Microphthalmia-associated transcription factor (Homo sapiens, UniProt O75030); assay: reducers of TRPM1 reporter luminescence, concentration series – cell-based, SK-MEL-5, cherry-picked, set 3, MITF inhibitor project, dose response (AID 493073); format: functional;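 also: SK-MEL-5 melanoma cells with luciferase driven by the MITF target TRPM1 promoter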
T2 sequence (O75030 whole entry): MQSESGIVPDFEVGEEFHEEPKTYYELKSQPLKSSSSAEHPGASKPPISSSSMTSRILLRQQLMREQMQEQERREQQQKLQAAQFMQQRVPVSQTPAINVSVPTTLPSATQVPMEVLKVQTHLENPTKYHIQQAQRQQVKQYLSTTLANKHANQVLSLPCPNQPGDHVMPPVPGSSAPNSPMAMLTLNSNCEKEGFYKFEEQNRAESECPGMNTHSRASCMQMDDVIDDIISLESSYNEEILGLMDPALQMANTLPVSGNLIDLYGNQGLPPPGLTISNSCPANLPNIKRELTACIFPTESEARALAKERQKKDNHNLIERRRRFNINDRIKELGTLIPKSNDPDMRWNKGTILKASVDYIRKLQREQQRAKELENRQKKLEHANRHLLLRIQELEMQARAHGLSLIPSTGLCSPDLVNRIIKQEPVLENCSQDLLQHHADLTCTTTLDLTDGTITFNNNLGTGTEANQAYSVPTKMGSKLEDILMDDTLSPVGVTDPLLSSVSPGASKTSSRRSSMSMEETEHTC

[4] = target: T3, Endoribonuclease toxin MazF (Escherichia coli K-12, UniProt P0AE70); assay: activation of MazEF endoribonuclease cleavage – biochemical, fluorescence, single-stranded RNA substrate, uHTS hits, dose response (AID 588481); format: functional
T3 sequence (P0AE70 whole entry): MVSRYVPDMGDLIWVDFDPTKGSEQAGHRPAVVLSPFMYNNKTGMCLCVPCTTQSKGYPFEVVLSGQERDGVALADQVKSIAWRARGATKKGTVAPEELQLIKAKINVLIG

[5] = target: T3, Endoribonuclease toxin MazF; assay: substrate-only fluorescence increase artefacts – biochemical, single-stranded RNase substrate, counter-screen for MazEF activator project, dose response (AID 588502); format: functional
[6] = Luminescence Cell-Based Dose Response HTS to Identify Inhibitors of 5'UTR Stem-Loop Driven Prion Protein mRNA Translation in H4 Neuroglioblastoma Cells. [Related pubchem assays: 1827 (Project Summary), 1813 (Primary HTS)]; format: functional
[7] = luciferase reporter signal suppression in cells – H4 neuroglioma cells, luminescence, dose response (AID 1990); format: functional, cell-based
[8] = alpha-synuclein stem-loop luciferase translation blockers – H4 neuroglioma cells, luminescence, confirmation (AID 1988); format: functional, cell-based
[9] = target: T4, Sentrin-specific protease 8 (Homo sapiens, UniProt Q96LD8); format: functional;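 also: luminescence read-out of SENP8 inhibition, dose-response confirmation following an ultra-high-throughput screen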
T4 sequence (Q96LD8 whole entry): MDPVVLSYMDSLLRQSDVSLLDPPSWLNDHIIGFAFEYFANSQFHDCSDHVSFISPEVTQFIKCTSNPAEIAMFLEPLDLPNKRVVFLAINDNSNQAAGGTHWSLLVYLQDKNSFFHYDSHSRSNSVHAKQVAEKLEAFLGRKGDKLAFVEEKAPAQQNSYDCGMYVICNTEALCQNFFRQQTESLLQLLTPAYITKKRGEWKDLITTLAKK

Caspase-3 = target: T5, Caspase-3 (Homo sapiens, UniProt P42574); format: functional;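 also: Dose-response selectivity test against caspase-3 for candidate inhibitors of sentrin-specific proteases (SENPs)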
T5 sequence (P42574 whole entry): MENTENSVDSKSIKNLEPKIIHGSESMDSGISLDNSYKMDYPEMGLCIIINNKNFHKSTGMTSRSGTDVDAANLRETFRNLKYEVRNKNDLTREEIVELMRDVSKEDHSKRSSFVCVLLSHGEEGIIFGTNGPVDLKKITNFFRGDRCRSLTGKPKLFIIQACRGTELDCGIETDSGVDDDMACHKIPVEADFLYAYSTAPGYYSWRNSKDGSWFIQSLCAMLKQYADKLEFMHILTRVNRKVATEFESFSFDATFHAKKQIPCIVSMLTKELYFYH

[10] = target: T6, Sentrin-specific protease 6 (Homo sapiens, UniProt Q9GZR1); format: functional;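 also: Luminescence-based dose-response confirmatory assay of SENP6 inhibition, following up an ultra-high-throughput screen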
T6 sequence (Q9GZR1 whole entry): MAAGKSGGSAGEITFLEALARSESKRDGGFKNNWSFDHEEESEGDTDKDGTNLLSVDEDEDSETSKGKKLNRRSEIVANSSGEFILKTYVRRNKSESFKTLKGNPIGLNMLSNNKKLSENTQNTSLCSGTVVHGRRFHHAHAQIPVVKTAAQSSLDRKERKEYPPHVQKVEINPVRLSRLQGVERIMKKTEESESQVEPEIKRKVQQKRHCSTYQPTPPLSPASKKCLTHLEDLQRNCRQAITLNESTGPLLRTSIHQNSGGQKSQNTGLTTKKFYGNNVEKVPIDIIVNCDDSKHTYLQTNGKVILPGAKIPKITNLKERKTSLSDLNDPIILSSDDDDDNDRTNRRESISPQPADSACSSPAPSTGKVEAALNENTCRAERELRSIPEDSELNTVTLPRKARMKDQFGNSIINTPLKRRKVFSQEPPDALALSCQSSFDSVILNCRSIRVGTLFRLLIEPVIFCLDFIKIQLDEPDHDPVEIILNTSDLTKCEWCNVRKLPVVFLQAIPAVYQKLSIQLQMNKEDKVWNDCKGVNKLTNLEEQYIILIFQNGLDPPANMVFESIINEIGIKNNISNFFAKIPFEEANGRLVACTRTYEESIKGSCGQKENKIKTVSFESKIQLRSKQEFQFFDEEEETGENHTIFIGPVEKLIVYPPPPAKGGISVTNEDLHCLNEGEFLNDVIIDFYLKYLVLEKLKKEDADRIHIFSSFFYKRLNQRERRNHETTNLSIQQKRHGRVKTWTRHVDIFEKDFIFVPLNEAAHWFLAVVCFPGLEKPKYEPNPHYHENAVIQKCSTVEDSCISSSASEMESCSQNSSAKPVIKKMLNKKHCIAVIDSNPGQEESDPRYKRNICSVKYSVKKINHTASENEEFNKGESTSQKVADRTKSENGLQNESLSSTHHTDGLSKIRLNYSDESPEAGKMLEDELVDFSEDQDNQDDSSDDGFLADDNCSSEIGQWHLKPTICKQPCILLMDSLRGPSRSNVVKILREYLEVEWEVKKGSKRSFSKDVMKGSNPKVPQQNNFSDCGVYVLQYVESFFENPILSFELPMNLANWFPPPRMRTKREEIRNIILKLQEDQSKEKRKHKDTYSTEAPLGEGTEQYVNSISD

[11] = target: T7, Sentrin-specific protease 7 (Homo sapiens, UniProt Q9BQF6); format: functional;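 also: Luminescence-based dose-response confirmation of ultra-high-throughput screening hits, measuring inhibition of SENP7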
T7 sequence (Q9BQF6 whole entry): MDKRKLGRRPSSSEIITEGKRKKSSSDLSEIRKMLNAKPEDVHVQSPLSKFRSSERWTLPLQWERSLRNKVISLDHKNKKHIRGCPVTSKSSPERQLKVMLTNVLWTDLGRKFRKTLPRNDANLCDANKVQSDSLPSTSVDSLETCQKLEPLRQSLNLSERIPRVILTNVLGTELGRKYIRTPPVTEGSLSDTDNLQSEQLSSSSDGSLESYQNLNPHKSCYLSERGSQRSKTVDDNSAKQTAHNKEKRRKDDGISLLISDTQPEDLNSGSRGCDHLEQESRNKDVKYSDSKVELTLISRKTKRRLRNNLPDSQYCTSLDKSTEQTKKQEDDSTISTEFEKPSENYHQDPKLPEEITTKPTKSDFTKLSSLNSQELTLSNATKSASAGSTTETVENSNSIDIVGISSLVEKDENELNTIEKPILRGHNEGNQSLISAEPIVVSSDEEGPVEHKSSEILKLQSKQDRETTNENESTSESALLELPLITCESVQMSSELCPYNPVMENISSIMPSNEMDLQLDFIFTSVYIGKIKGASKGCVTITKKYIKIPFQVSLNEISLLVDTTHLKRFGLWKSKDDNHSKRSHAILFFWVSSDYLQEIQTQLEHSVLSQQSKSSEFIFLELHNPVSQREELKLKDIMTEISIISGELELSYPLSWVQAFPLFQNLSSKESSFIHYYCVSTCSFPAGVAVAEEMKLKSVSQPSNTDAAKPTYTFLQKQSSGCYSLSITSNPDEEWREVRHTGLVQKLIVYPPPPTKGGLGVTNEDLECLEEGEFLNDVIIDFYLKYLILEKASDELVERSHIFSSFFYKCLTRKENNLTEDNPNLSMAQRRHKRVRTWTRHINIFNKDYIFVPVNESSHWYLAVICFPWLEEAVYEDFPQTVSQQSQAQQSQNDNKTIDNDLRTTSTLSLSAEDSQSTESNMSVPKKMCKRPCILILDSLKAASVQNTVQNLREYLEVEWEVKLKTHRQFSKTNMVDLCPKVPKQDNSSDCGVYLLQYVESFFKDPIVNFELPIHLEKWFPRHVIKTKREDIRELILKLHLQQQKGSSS

[12] = antiviral protection against BTV-induced cell death – arbovirus, BSR cells, confirmation (AID 1250); format: functional;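 also: protection from viral cytopathic effect measured as cell viability by ATP luminescence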
[13] = HEK-293T viability loss after treatment – luminescence, T-cell screen hits, cytotoxicity control for TCR NF-kB inhibitor project, dose response (AID 489026); format: functional, cell-based;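 also: cells exposed to compound about 14 hours before the viability readout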
Fatty acid synthase [14] = target: T8, Fatty acid synthase (Homo sapiens, UniProt P49327); assay: inhibition of human FAS-TE enzyme activity – biochemical, endpoint fluorescence intensity, uHTS hits, dose response (AID 624327); format: functional;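 also: fluorescence from hydrolysis of an O-methyl fluorescein acyl ester substrate by the enzyme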
Fatty acid synthase [15] = target: T8, Fatty acid synthase; assay: inhibition of human FAS-TE enzyme activity – biochemical, kinetic fluorescence intensity, dose response (AID 624326); format: functional;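 also: rate of fluorescence rise from hydrolysis of a fluorogenic O-methyl fluorescein ester substrate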
cells [16] = format: functional, cell-based
cells [17] = format: functional, cell-based; remark: listed apart in the source

T8 sequence (P49327 whole entry): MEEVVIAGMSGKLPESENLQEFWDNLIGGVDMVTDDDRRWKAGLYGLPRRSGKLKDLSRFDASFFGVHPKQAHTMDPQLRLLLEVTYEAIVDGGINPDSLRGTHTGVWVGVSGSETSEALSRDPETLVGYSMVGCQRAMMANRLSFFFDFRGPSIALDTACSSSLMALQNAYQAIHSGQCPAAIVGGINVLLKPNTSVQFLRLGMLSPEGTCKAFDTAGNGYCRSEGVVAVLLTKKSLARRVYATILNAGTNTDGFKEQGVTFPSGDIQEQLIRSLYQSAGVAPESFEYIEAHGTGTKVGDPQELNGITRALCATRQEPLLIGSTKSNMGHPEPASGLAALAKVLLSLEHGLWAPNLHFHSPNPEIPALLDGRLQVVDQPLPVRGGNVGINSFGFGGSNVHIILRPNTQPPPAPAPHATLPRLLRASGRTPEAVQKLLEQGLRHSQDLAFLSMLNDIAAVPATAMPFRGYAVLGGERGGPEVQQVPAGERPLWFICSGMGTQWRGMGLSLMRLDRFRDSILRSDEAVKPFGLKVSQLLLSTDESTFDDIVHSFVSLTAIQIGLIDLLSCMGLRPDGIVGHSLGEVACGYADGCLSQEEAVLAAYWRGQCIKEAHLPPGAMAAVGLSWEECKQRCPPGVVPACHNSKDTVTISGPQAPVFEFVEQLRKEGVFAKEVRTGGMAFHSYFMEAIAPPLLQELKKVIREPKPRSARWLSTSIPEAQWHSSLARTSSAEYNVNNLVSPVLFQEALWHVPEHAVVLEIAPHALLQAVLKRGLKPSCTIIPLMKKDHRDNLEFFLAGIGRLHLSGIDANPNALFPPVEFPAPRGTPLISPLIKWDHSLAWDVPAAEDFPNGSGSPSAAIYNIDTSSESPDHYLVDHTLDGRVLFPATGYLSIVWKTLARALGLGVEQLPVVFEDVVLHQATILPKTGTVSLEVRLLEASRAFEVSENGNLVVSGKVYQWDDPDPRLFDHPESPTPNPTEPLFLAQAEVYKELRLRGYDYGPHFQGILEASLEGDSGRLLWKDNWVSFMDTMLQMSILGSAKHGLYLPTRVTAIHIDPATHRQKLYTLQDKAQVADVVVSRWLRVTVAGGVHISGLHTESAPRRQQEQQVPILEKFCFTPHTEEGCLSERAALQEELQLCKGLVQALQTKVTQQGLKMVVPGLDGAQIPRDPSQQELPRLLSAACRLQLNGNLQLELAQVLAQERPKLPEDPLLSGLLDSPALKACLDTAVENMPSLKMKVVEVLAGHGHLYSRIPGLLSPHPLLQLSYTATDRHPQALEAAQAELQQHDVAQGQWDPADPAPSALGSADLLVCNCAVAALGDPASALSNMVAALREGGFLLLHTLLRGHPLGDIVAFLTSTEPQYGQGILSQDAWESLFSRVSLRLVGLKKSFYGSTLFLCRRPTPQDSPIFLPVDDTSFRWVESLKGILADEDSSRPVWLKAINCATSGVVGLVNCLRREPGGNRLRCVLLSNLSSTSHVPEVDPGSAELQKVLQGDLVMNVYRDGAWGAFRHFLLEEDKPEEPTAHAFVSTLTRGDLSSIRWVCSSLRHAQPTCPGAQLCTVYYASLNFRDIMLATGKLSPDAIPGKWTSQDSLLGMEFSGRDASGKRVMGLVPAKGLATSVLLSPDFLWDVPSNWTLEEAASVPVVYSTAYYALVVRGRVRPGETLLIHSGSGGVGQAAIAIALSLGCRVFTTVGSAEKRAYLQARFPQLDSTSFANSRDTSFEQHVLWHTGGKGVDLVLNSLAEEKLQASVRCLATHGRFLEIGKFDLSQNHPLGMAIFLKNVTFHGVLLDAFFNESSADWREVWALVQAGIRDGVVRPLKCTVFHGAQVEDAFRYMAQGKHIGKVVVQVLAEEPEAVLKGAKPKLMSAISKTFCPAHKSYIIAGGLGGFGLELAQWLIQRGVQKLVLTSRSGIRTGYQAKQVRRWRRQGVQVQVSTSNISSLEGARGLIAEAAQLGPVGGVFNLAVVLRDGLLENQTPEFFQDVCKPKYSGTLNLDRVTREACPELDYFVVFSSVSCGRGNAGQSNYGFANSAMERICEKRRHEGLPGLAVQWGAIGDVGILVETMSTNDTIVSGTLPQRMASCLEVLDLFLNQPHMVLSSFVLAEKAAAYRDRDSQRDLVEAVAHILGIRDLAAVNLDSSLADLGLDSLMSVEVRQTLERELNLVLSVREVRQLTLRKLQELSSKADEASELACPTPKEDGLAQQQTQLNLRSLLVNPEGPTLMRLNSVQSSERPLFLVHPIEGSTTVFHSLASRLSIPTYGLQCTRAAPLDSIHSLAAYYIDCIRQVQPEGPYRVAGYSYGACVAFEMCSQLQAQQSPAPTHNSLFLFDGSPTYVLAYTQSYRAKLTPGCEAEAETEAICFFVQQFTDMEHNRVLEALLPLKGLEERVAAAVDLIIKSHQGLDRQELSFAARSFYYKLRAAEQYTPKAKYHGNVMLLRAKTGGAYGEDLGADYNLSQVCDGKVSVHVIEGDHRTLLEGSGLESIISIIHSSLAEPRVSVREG

## COc1ccc(C(=O)CSc2nc3ccc[nH]c-3n2)cc1OC
Coagulation factor XII
  IC50: > 50 µM (inactive)

## O=C(NC1CCCc2ccccc21)C1CCN(S(=O)(=O)c2ccccc2F)CC1 (stereo unspecified)
Coagulation factor XII
  IC50: > 50 µM (inactive)

## CCOc1ccc(C(=O)Nc2cccc(C(=O)O)c2C)cc1Cl
[1]
  AC50: 10.1 µM (active)
[2]
  AC50: 8.96 µM (active)
[3]
  AC50: 8.56 µM (active)

## COc1cc2[nH]c(=O)n(Cc3ccc(C(=O)NC4CCCC4)cc3)c(=O)c2cc1OC
[4]
  EC50: > 99 µM (inactive)
[5]
  EC50: > 99 µM (inactive)

## Cc1cc(C(=O)CN2C(=O)c3ccccc3S2(=O)=O)c(C)n1-c1ccccc1
[6]
  EC50: 9.5 µM (active)
[3]
  AC50: 3.45 µM (active)
[7]
  EC50: 7.71 µM (active)
[8]
  EC50: 5.88 µM (active)

## Cc1cc(NC(=O)COC(=O)C2CCN(S(=O)(=O)c3c(Cl)cccc3Cl)CC2)no1
Coagulation factor XII
  IC50: > 50 µM (inactive)

## O=C(Nc1nc2c(s1)CCCC2)c1ccc(Br)s1
[9]
  IC50: 25.4 µM (active)
Caspase-3
  IC50: 24.9 µM (active)
[10]
  IC50: 5.95 µM (active)
[11]
  IC50: 4.82 µM (active)
[12]
  IC50: 25.7 µM (active)

## CCOc1ccc(-c2[nH]ncc2-c2ccc(OC)c(OC)c2)c(O)c1
[13]
  IC50: 75.8 µM (inactive)

## CCOc1cc(NC(=O)CCl)c(OCC)cc1NC(=O)CCl
[3]
  AC50: 5.51 µM (active)

## COc1ccc(NC(=O)Cn2nnc(-c3ccccc3NS(=O)(=O)c3ccc(OC)cc3)n2)cc1
[13]
  IC50: > 80 µM (inactive)

## O=Nc1ccc(NOC(=O)c2ccccc2)cc1
[9]
  IC50: > 100 µM (inactive)
Caspase-3
  IC50: 48.4 µM (active)
[10]
  IC50: 21.7 µM (active)
[11]
  IC50: 8.98 µM (active)

## O=C(O)c1ccc(Nc2nc3c(s2)CCCC3)cc1
[1]
  AC50: 4.75 µM (active)
[2]
  AC50: 4.2 µM (active)
[3]
  AC50: 6.49 µM (active)

## Cc1nonc1OC(C)CNCCNc1ccc([N+](=O)[O-])cc1 (stereo unspecified)
Coagulation factor XII
  IC50: > 50 µM (inactive)

## O=C(C1CC(c2ccc(Cl)c(Cl)c2)=NO1)N1CCC2(CC1)OCCO2 (stereo unspecified)
Fatty acid synthase [14]
  IC50: 7.22 µM (active)
Fatty acid synthase [15]
  IC50: 5.55 µM (active)
Coagulation factor XII
  IC50: > 50 µM (inactive)

## CCc1ccc(/C=N/NC(=O)c2cc(C3CC3)nc3ccccc23)s1
[13]
  IC50: > 80 µM (inactive)

## COc1cccc(/N=C/c2c(O)oc3ccccc3c2=O)c1
[9]
  IC50: > 100 µM (inactive)
Caspase-3
  IC50: > 100 µM (inactive)
[10]
  IC50: > 100 µM (inactive)
[11]
  IC50: 14.2 µM (active)

## O=[N+]([O-])c1ccc(N/N=C/c2ccccc2O)cc1
Cells [16]
  EC50: > 350 µM (not active)
[9]
  IC50: 55.1 µM (active)
Caspase-3
  IC50: 31.1 µM (active)
[10]
  IC50: 22.1 µM (active)
[11]
  IC50: 4.9 µM (active)
Cells [17]
  EC50: 10.4 µM (active)

## COc1ccc(/C=C2\CCc3ccccc3C2=O)cc1OC
[9]
  IC50: 22.1 µM (active)
Caspase-3
  IC50: 27.3 µM (active)
[10]
  IC50: 15.8 µM (active)
[11]
  IC50: 7.94 µM (active)
